Laboratory results from PubChem BioAssay (NCI).
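Where inhibition never reached the appropriate level, the endpoint shown equals the highest concentration tested. Otherwise, values were interpolated linearly from a five-concentration, 48-hour dose response in 96-well plates. GI50: concentration for 50% inhibition of growth. Definition used: TGI = concentration required for complete inhibition of growth.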

Key:
Assay in all cases: NCI-60 cell line screen, 48 h
[1] = tested on: 786-0 renal
[2] = tested on: A498 renal
[3] = tested on: A549 NSCLC
[4] = tested on: ACHN renal
[5] = tested on: BT-549 breast
[6] = tested on: CAKI-1 renal
[7] = tested on: CCRF-CEM leukemia
[8] = tested on: COLO 205 colon
[9] = tested on: DU-145 prostate
[10] = tested on: HCC-2998 colon
[11] = tested on: HCT-116 colon
[12] = tested on: HCT-15 colon
[13] = tested on: HL-60(TB) leukemia
[14] = tested on: HOP-62 NSCLC
[15] = tested on: HOP-92 NSCLC
[16] = tested on: HS 578T breast
[17] = tested on: HT29 colon
[18] = tested on: IGROV1 ovarian
[19] = tested on: K-562 leukemia
[20] = tested on: KM12 colon
[21] = tested on: LOX IMVI melanoma
[22] = tested on: M14 melanoma
[23] = tested on: MALME-3M melanoma
[24] = tested on: MCF7 breast
[25] = tested on: MDA-MB-231 breast
[26] = tested on: MDA-MB-435
[27] = tested on: MOLT-4 leukemia
[28] = tested on: NCI-H226 lung
[29] = tested on: NCI-H23 lung
[30] = tested on: NCI-H460 lung
[31] = tested on: NCI-H522 lung
[32] = tested on: NCI/ADR-RES ovarian
[33] = tested on: OVCAR-3 ovarian
[34] = tested on: OVCAR-4 ovarian
[35] = tested on: OVCAR-5 ovarian
[36] = tested on: OVCAR-8 ovarian
[37] = tested on: PC-3 prostate
[38] = tested on: RPMI-8226 leukemia
[39] = tested on: RXF 393 renal
[40] = tested on: SF-268 CNS
[41] = tested on: SF-295 CNS
[42] = tested on: SF-539 CNS
[43] = tested on: SK-MEL-2 melanoma
[44] = tested on: SK-MEL-28 melanoma
[45] = tested on: SK-MEL-5 melanoma
[46] = tested on: SK-OV-3 ovarian
[47] = tested on: SN12C renal
[48] = tested on: SNB-19 CNS
[49] = tested on: SNB-75 CNS
[50] = tested on: SR leukemia
[51] = tested on: SW-620 colon
[52] = tested on: T-47D breast
[53] = tested on: TK-10 renal
[54] = tested on: U251 CNS
[55] = tested on: UACC-257 melanoma
[56] = tested on: UACC-62 melanoma
[57] = tested on: UO-31 renal

C[CH2][Pb]([CH2]C)([CH2]C)[O]C(=O)COC
GI50 [1]: 1.22 µM
TGI [1]: 3.11 µM
GI50 [2]: 0.277 µM
TGI [2]: 2.29 µM
GI50 [3]: 1.36 µM
TGI [3]: 6.82 µM
GI50 [4]: 0.836 µM
TGI [4]: 10.2 µM
GI50 [5]: 0.837 µM
TGI [5]: 3.61 µM
GI50 [6]: 1.06 µM
TGI [6]: 8.04 µM
GI50 [7]: 0.534 µM
TGI [7]: 6.84 µM
GI50 [8]: 1.35 µM
TGI [8]: 2.96 µM
GI50 [9]: 1.49 µM
TGI [9]: 5.68 µM
GI50 [10]: 0.907 µM
TGI [10]: 2.39 µM
GI50 [11]: 0.578 µM
TGI [11]: 1.97 µM
GI50 [12]: 0.737 µM
TGI [12]: 4.33 µM
GI50 [13]: 0.634 µM
TGI [13]: 2.45 µM
GI50 [14]: 1.67 µM
TGI [14]: 4.06 µM
GI50 [15]: 0.292 µM
TGI [15]: 3.28 µM
GI50 [16]: 0.517 µM
TGI [16]: 4.57 µM
GI50 [17]: 1.43 µM
TGI [17]: 3.38 µM
GI50 [18]: 1.15 µM
TGI [18]: 6.33 µM
GI50 [19]: 0.499 µM
TGI [19]: 5.77 µM
GI50 [20]: 0.817 µM
TGI [20]: 6.1 µM
GI50 [21]: 0.815 µM
TGI [21]: 2.28 µM
GI50 [22]: 0.4 µM
TGI [22]: 1.9 µM
GI50 [23]: 0.337 µM
TGI [23]: 3.76 µM
GI50 [24]: 0.469 µM
TGI [24]: 7.53 µM
GI50 [25]: 1.13 µM
TGI [25]: 3.37 µM
GI50 [26]: 0.182 µM
TGI [26]: 0.409 µM
GI50 [27]: 1.75 µM
TGI [27]: 5.97 µM
GI50 [28]: 1.62 µM
TGI [28]: 6.17 µM
GI50 [29]: 1.01 µM
TGI [29]: 5.07 µM
GI50 [30]: 0.951 µM
TGI [30]: 10.4 µM
GI50 [31]: 0.892 µM
TGI [31]: 2.48 µM
GI50 [32]: 0.785 µM
TGI [32]: 12 µM
GI50 [33]: 0.441 µM
TGI [33]: 1.86 µM
GI50 [34]: 0.541 µM
TGI [34]: 2.91 µM
GI50 [35]: 1.46 µM
TGI [35]: 3.77 µM
GI50 [36]: 1.91 µM
TGI [36]: 9.03 µM
GI50 [37]: 0.795 µM
TGI [37]: 2.51 µM
GI50 [38]: 0.421 µM
TGI [38]: 3 µM
GI50 [39]: 0.232 µM
TGI [39]: 0.783 µM
GI50 [40]: 1.75 µM
TGI [40]: 7.02 µM
GI50 [41]: 1.33 µM
TGI [41]: 3.06 µM
GI50 [42]: 1.23 µM
TGI [42]: 3.28 µM
GI50 [43]: 0.332 µM
TGI [43]: 0.879 µM
GI50 [44]: 0.552 µM
TGI [44]: 2.9 µM
GI50 [45]: 0.427 µM
TGI [45]: 1.62 µM
GI50 [46]: 1.55 µM
TGI [46]: 4.93 µM
GI50 [47]: 2.05 µM
TGI [47]: 9.19 µM
GI50 [48]: 1.97 µM
TGI [48]: 9.06 µM
GI50 [49]: 0.304 µM
TGI [49]: 2.85 µM
GI50 [50]: 0.328 µM
TGI [50]: 5.07 µM
GI50 [51]: 0.333 µM
TGI [51]: 1.33 µM
GI50 [52]: 0.317 µM
TGI [52]: 2.53 µM
GI50 [53]: 0.832 µM
TGI [53]: 3.77 µM
GI50 [54]: 1.29 µM
TGI [54]: 2.94 µM
GI50 [55]: 0.571 µM
TGI [55]: 3.26 µM
GI50 [56]: 0.407 µM
TGI [56]: 3.47 µM
GI50 [57]: 0.567 µM
TGI [57]: 2.95 µM

Nc1c(C(=O)Nc2cccc(C(F)(F)F)c2)sc2nc3c(cc12)C(O)CCC3 (stereo not drawn)
GI50 [1]: 13.7 µM
TGI [1]: 44.8 µM
GI50 [2]: 0.872 µM
TGI [2]: 27.7 µM
GI50 [3]: 6.85 µM
TGI [3]: > 79.4 µM
GI50 [4]: 10.1 µM
TGI [4]: > 68.4 µM
GI50 [5]: 7.27 µM
TGI [5]: > 100 µM
GI50 [6]: 9.52 µM
TGI [6]: > 100 µM
GI50 [7]: 3.4 µM
TGI [7]: > 100 µM
GI50 [8]: 3.79 µM
TGI [8]: > 100 µM
GI50 [9]: 5.44 µM
TGI [9]: > 57.9 µM
GI50 [10]: > 61.2 µM
TGI [10]: > 100 µM
GI50 [11]: 3.02 µM
TGI [11]: > 100 µM
GI50 [12]: 1.93 µM
TGI [12]: > 100 µM
GI50 [13]: 3.22 µM
TGI [13]: > 100 µM
GI50 [14]: 6.82 µM
TGI [14]: 39.4 µM
GI50 [15]: 3.31 µM
TGI [15]: 25.6 µM
GI50 [16]: 6.23 µM
TGI [16]: 96.9 µM
GI50 [17]: 3.35 µM
TGI [17]: > 100 µM
GI50 [18]: 14.1 µM
TGI [18]: > 100 µM
GI50 [19]: 0.703 µM
TGI [19]: > 100 µM
GI50 [20]: 3.28 µM
TGI [20]: > 100 µM
GI50 [21]: 5.68 µM
TGI [21]: > 100 µM
GI50 [22]: 3.18 µM
TGI [22]: 99.5 µM
GI50 [23]: 6.72 µM
TGI [23]: > 68 µM
GI50 [24]: 1.39 µM
TGI [24]: > 100 µM
GI50 [25]: 12.2 µM
TGI [25]: > 100 µM
GI50 [26]: 0.322 µM
TGI [26]: 1.65 µM
GI50 [27]: 6.7 µM
TGI [27]: > 100 µM
GI50 [28]: 10.8 µM
TGI [28]: > 95.5 µM
GI50 [29]: 15.2 µM
TGI [29]: > 100 µM
GI50 [30]: 4.55 µM
TGI [30]: > 100 µM
GI50 [31]: 12.7 µM
TGI [31]: > 100 µM
GI50 [32]: 6.14 µM
TGI [32]: > 100 µM
GI50 [33]: 4.27 µM
TGI [33]: > 49.3 µM
GI50 [34]: 3.46 µM
TGI [34]: > 46.6 µM
GI50 [35]: > 50 µM
TGI [35]: > 100 µM
GI50 [36]: 9.66 µM
TGI [36]: > 100 µM
GI50 [37]: 4.02 µM
TGI [37]: 28.4 µM
GI50 [38]: 4.26 µM
TGI [38]: > 100 µM
GI50 [39]: 5.65 µM
TGI [39]: 50.8 µM
GI50 [40]: 6.07 µM
TGI [40]: > 67.1 µM
GI50 [41]: 3.07 µM
TGI [41]: 38.4 µM
GI50 [42]: 4 µM
TGI [42]: > 41.9 µM
GI50 [43]: 6.69 µM
TGI [43]: 56.4 µM
GI50 [44]: 6.42 µM
TGI [44]: > 100 µM
GI50 [45]: 3.59 µM
TGI [45]: > 81.6 µM
GI50 [46]: 15.3 µM
TGI [46]: > 100 µM
GI50 [47]: 11.1 µM
TGI [47]: > 100 µM
GI50 [48]: 14.4 µM
TGI [48]: > 100 µM
GI50 [49]: 3.47 µM
TGI [49]: 18.1 µM
GI50 [50]: 0.61 µM
TGI [50]: > 88.1 µM
GI50 [51]: 2.73 µM
TGI [51]: > 100 µM
GI50 [52]: 8.69 µM
TGI [52]: 66.8 µM
GI50 [53]: 11.8 µM
TGI [53]: 50.2 µM
GI50 [54]: 6.05 µM
TGI [54]: 37.6 µM
GI50 [55]: > 26.2 µM
TGI [55]: > 100 µM
GI50 [56]: 3.2 µM
TGI [56]: > 100 µM
GI50 [57]: 32.2 µM
TGI [57]: > 100 µM
